Data reported in publication PMC12910498 (ACS pharmacology & translational science, 2026).

Legend:
human D2R long isoform = human D2R long isoform (Homo sapiens, UniProt P14416); test: DiscoverX PathHunter β-arrestin recruitment assay, D2R
[1] = Phase I metabolic stability in human liver microsomes (with NADPH); format: in vitro ADME; conditions: pH 7.4, presence of NADPH, mean ± SD, n = 3
Method: (§1) We evaluated the Phase I metabolic stability of compounds 2−7 and 14−19 using rat and human liver microsomes, as previously described.[45]
(§2) Phase I metabolic stability assays were conducted using rat and human liver microsomes as previously described[45],[70] with minor modifications. In brief, the reactions were carried out with 100 mM potassium phosphate buffer, pH 7.4, in the presence of NADPH regenerating system (1.3 mM NADPH, 3.3 mM glucose 6-phosphate, 3.3 mM MgCl2, 0.4 U/mL glucose-6-phosphate dehydrogenase, 50 μM sodium citrate). Negative controls without cofactors were assessed to determine the non-CYP-mediated metabolism. Compound disappearance was monitored over time using a liquid chromatography and tandem mass spectrometry (LC/MS) method. All reactions were performed in triplicate.
(§3) Chromatographic analysis was performed on a Dionex ultra high-performance LC system coupled with Q Exactive Focus orbitrap mass spectrometer (Thermo Fisher Scientific Inc., Waltham MA). Separation was achieved using Agilent Eclipse Plus column (100 × 2.1 mm^2 i.d.; maintained at 35 °C) packed with a 1.8 μm C18 stationary phase. […] The total run time for each analyte was 6.5 min. Pumps were operated at a flow rate of 0.3 mL/min. The mass spectrometer controlled by Xcalibur software 4.0.27.13 (Thermo Scientific) was operated with a HESI ion source in positive ionization mode. Compounds were identified in the full-scan mode (from m/z 50 to 750) by comparing t = 0 samples with t = 30 min and t = 60 min samples.

[2] = Phase I metabolic stability in rat liver microsomes (with NADPH); format: in vitro ADME; conditions: pH 7.4, presence of NADPH, mean ± SD, n = 3
Method: as §1, §2, §3

human D3R = human D3R (Homo sapiens, UniProt P35462); test: biochemical
Chain of human D3R (P35462 whole entry): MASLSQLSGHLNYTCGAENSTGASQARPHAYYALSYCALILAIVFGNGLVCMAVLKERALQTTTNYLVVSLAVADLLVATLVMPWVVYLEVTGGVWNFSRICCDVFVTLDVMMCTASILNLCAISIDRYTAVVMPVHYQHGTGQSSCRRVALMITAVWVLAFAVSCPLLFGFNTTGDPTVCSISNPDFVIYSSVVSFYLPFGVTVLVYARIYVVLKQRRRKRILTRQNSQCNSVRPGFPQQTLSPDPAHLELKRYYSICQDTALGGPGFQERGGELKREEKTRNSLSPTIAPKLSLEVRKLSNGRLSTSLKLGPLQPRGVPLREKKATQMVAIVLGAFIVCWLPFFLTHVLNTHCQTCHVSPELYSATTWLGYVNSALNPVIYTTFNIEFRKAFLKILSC

Chain of human D2R long isoform (P14416 whole entry, canonical isoform): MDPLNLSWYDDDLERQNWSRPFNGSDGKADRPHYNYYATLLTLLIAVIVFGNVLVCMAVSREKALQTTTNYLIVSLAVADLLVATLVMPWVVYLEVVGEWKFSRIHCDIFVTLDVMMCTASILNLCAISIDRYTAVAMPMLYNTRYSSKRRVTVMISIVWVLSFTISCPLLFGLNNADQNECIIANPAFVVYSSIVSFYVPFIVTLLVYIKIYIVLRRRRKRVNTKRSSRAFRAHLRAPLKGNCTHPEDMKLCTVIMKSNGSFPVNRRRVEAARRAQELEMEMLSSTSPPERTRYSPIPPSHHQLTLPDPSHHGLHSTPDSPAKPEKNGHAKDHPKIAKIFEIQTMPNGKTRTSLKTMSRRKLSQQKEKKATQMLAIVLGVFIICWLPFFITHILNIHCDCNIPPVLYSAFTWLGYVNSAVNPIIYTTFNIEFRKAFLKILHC

Cc1cccc(-n2cc(CN3CCN(c4cccc5ccccc45)CC3)nn2)c1 [Compound 18, 1-(Naphthalen-1-yl)-4-((1-(m-tolyl)-1H-1,2,3-triazol-4-yl)methyl)piperazine]
IC50 (human D2R long isoform): 4.7 ± 1.1 µM | D2R Ant (%) (human D2R long isoform; antagonist mode, EC80 dopamine (1 μM), normalized to spiperone): 87.8 ± 26.7% | half-life [1]: 61 ± 7.72 min | half-life [2]: 56.8 ± 10.2 min | Ki (human D3R): 10.8 µM
